The test system of one series is P. aeruginosa. Description: Amikacin susceptibility testing (MIC) of P. aeruginosa sputum isolates. Particulars: for MIC: Pseudomonas aeruginosa. It counts as cell-based. The procedure:
Quantitative culture of sputum samples and subsequent amikacin susceptibility testing of each morphologically distinct P. aeruginosa were performed. The MIC of amikacin for the isolates with the highest MIC cultured from each subject at screening and Day 14 was documented. The density (CFU per gram of sputum) of P. aeruginosa in sputum was calculated as the log10 value for the sum of all morphotypes.

Series [1] relates to P. aeruginosa strain (mucoid strain 3064). Description: Rat model of chronic pulmonary infection with Pseudomonas (agar beads). It counts as in vivo, rats.
Series [2] is described as follows: Preclinical pharmacokinetics after inhalation in rats. To be noted: equal dose by inhalation.
The conditions of series [3]: rat, in vivo.

As to `NCC[C@H](O)C(=O)N[C@@H]1C[C@H](N)[C@@H](O[C@H]2O[C@H](CN)[C@@H](O)[C@H](O)[C@H]2O)[C@H](O)[C@H]1O[C@H]1O[C@H](CO)[C@@H](O)[C@H](N)[C@H]1O` [amikacin], the minimal inhibitory concentration (MIC) (in general, the lowest concentration found to suppress growth) with P. aeruginosa (0 h, Study 1, baseline (Day 0)) amounted to 8 µg/mL; with P. aeruginosa (336 h, Study 1, Day 14) it was 30.8 µg/mL; in the series on P. aeruginosa (Study 2, baseline), 41 µg/mL. In addition, the “mean MIC of amikacin for P. aeruginosa isolates” value in the series on P. aeruginosa (Study 1, baseline (Day 0)) was 8.04 µg/mL.

On to `NC[C@H]1O[C@H](O[C@H]2[C@H](O)[C@@H](O[C@H]3O[C@H](CO)[C@@H](O)[C@H](N)[C@H]3O)[C@H](N)C[C@@H]2N)[C@H](N)C[C@@H]1O` [tobramycin], for which the bacteria in lungs entry in series [1] (60 mg/kg (given twice per day) daily for 28 days) is reported as “below the limit of detection”. In series [1] (BID for 14 days, 30 mg/kg per dose), the “bacterial density (log10CFU/lung) vs saline control” value is given as “significant reduction”. In series [2], the “AUC of drug in the kidneys vs Liposomal Amikacin aerosol” value is reported as “significantly higher”. Further, the “time to undetectable lung levels after cessation of administration” value in series [3] was at most 6 h.
